Data as given in the NIST ThermoML archive (doi:10.1021/je300972a).
± gives the expanded uncertainty stated by the source.

Key:
[1] = xn = mol fraction of the nth substance listed; details: 101 kPa, Liquid, x1 = 1; for viscosity: Falling or rolling sphere viscometry; for mass density: Vibrating tube method
[2] = refractive index (Na D-line) (dimensionless); xn = mol fraction of the nth substance listed; details: 101 kPa, Liquid, Standard Abbe refractometry, x1 = 1
[3] = 101 kPa, Liquid; for viscosity: Falling or rolling sphere viscometry; for mass density: Vibrating tube method
[4] = refractive index (Na D-line) (dimensionless); details: 101.33 kPa, Liquid, Standard Abbe refractometry

CCCC[n+]1ccccc1.F[B-](F)(F)F [1-butylpyridinium tetrafluoroborate] + CCCC[n+]1ccc(C)cc1.O=S(=O)([N-]S(=O)(=O)C(F)(F)F)C(F)(F)F
viscosity ([1]; 293.15 K): 227.1 ± 12 mPa·s | mass density ([1]; 293.15 K): 1217.1 ± 1.6 kg/m3 | viscosity ([1]; 303.15 K): 123.6 ± 4.6 mPa·s | mass density ([1]; 303.15 K): 1210.3 ± 1.6 kg/m3 | viscosity ([1]; 313.15 K): 74.8 ± 2.1 mPa·s | mass density ([1]; 313.15 K): 1203.5 ± 1.6 kg/m3 | viscosity ([1]; 323.15 K): 48.1 ± 1.2 mPa·s | mass density ([1]; 323.15 K): 1196.7 ± 1.6 kg/m3 | viscosity ([1]; 333.15 K): 33 ± 0.8 mPa·s | mass density ([1]; 333.15 K): 1189.9 ± 1.6 kg/m3 | viscosity ([1]; 343.15 K): 23.8 ± 0.6 mPa·s | mass density ([1]; 343.15 K): 1183.2 ± 1.6 kg/m3 | viscosity ([1]; 353.15 K): 17.7 ± 0.5 mPa·s | mass density ([1]; 353.15 K): 1176.5 ± 1.6 kg/m3 | refractive index ([2]; 293.15 K): 1.447 ± 0.0007 | refractive index ([2]; 303.15 K): 1.4444 ± 0.0007 | refractive index ([2]; 313.15 K): 1.4418 ± 0.0007 | refractive index ([2]; 323.15 K): 1.4392 ± 0.0007 | refractive index ([2]; 333.15 K): 1.4366 ± 0.0007 | refractive index ([2]; 343.15 K): 1.4341 ± 0.0007 | refractive index ([2]; 353.15 K): 1.4315 ± 0.0007

CCCC[n+]1ccccc1.F[B-](F)(F)F [1-butylpyridinium tetrafluoroborate]
viscosity ([3]; 293.15 K): 227.1 ± 12 mPa·s | mass density ([3]; 293.15 K): 1217.1 ± 1.6 kg/m3 | viscosity ([3]; 303.15 K): 123.6 ± 4.6 mPa·s | mass density ([3]; 303.15 K): 1210.3 ± 1.6 kg/m3 | viscosity ([3]; 313.15 K): 74.8 ± 2.1 mPa·s | mass density ([3]; 313.15 K): 1203.5 ± 1.6 kg/m3 | viscosity ([3]; 323.15 K): 48.1 ± 1.2 mPa·s | mass density ([3]; 323.15 K): 1196.7 ± 1.6 kg/m3 | viscosity ([3]; 333.15 K): 33 ± 0.8 mPa·s | mass density ([3]; 333.15 K): 1189.9 ± 1.6 kg/m3 | viscosity ([3]; 343.15 K): 23.8 ± 0.6 mPa·s | mass density ([3]; 343.15 K): 1183.2 ± 1.6 kg/m3 | viscosity ([3]; 353.15 K): 17.7 ± 0.5 mPa·s | mass density ([3]; 353.15 K): 1176.5 ± 1.6 kg/m3 | refractive index ([4]; 293.15 K): 1.447 ± 0.0007 | refractive index ([4]; 303.15 K): 1.4444 ± 0.0007 | refractive index ([4]; 313.15 K): 1.4418 ± 0.0007 | refractive index ([4]; 323.15 K): 1.4392 ± 0.0007 | refractive index ([4]; 333.15 K): 1.4366 ± 0.0007 | refractive index ([4]; 343.15 K): 1.4341 ± 0.0007 | refractive index ([4]; 353.15 K): 1.4315 ± 0.0007

CCCC[n+]1ccc(C)cc1.O=S(=O)([N-]S(=O)(=O)C(F)(F)F)C(F)(F)F
viscosity ([3]; 293.15 K): 70.6 ± 1.9 mPa·s | mass density ([3]; 293.15 K): 1416.6 ± 1.7 kg/m3 | viscosity ([3]; 303.15 K): 45.2 ± 1.2 mPa·s | mass density ([3]; 303.15 K): 1407.3 ± 1.7 kg/m3 | viscosity ([3]; 313.15 K): 30.6 ± 0.8 mPa·s | mass density ([3]; 313.15 K): 1398.1 ± 1.7 kg/m3 | viscosity ([3]; 323.15 K): 21.8 ± 0.6 mPa·s | mass density ([3]; 323.15 K): 1388.8 ± 1.7 kg/m3 | viscosity ([3]; 333.15 K): 16.1 ± 0.4 mPa·s | mass density ([3]; 333.15 K): 1379.7 ± 1.7 kg/m3 | viscosity ([3]; 343.15 K): 12.3 ± 0.3 mPa·s | mass density ([3]; 343.15 K): 1370.5 ± 1.7 kg/m3 | viscosity ([3]; 353.15 K): 9.8 ± 0.3 mPa·s | mass density ([3]; 353.15 K): 1361.5 ± 1.7 kg/m3 | refractive index ([4]; 293.15 K): 1.448 ± 0.0007 | refractive index ([4]; 303.15 K): 1.4449 ± 0.0007 | refractive index ([4]; 313.15 K): 1.4419 ± 0.0007 | refractive index ([4]; 323.15 K): 1.4388 ± 0.0007 | refractive index ([4]; 333.15 K): 1.4358 ± 0.0007 | refractive index ([4]; 343.15 K): 1.4328 ± 0.0007 | refractive index ([4]; 353.15 K): 1.4298 ± 0.0007
